The subject of one test is 2-1 gene (In 2-1 mRNA). Description: RNA slot blot / Northern analysis of 2-1 mRNA in roots of chemically treated corn. It is filed as in vivo, corn (Missouri 17). Also on record: In2-1 induction level: key to the marks not given beside the values. Here is the method:
Missouri 17 corn seeds were surface sterilized by soaking them in a solution of 10% commercial bleach and 0.1% sodium dodecylsulfate (SDS) for 30 minutes. Seeds were then rinsed thoroughly in a buchner funnel with sterile distilled water and prepared for germination by placing them onto 5-6 layers of moist sterile paper towels in a 8"×10" glass baking tray. The tray was covered with aluminum foil and placed in the dark in a 30° C. incubator for 48-72 hours to allow the seeds to germinate. After germination, seedlings were grown hydroponically in an apparatus consisting of a sheet of 8 mesh stainless steel wire gauze suspended over the top of a 2 liter glass beaker filled with sterile half strength Hoagland's solution (referred to 0.5× Hoagland's) so that the roots extended through the mesh and into the media. The hydroponic apparatus was aerated by introducing humidified air into the bottom of the beaker with a gas diffusing stone commonly used in tropical fish aquariums. The apparatus was covered with a loose-fitting sheet of aluminum foil and placed in a reach-in growth chamber illuminated by both fluorescent and incandescent lamps at an intensity of 4400 lux. Seedlings were grown at 28° C., 75% relative humidity using a 16 hour day/8 hour night cycle. After two days, the foil was removed and plants were grown for an additional 5-6 days. Any 0.5× Hoagland's lost to evaporation was replenished every 2-3 days. […] Plants were then allowed to grow for six additional hours prior to harvest.
A nitrocellulose filter (Schlicher and Schull BA-85) was wetted by soaking it twice for 10 minutes in water, followed by a 10 minute soak in 1M ammonium acetate. The filter was then placed into a Slot Blot apparatus (Schleicher and Schuell, Inc., Keene, N.H. 03431, CAT #SRC072/0). […] Forty pl of denaturation buffer (30% formaldehyde, 100 mM sodium phosphate pH 6.8) were added to each sample and all samples were then incubated at 65° C. for 20-30 minutes and quick-cooled in an ice slurry for 5 minutes. Thirty μl of 4M ammonium acetate were added to each sample and the 150 μl samples were added to slots in the blotting cell with the aid of a 10-15 mm Hg vacuum. The filter was removed from the blotting cell, air dried and baked for 2 hours at 70° C. in vacuo.
The filter was cut into six pieces such that each piece had one slot cox.raining RNA from each of the three treatments described above. One of the filter pieces was incubated with 10 ml of prehybridization buffer (50% deienized formamide, 5× SSC, 5× Denhardt's, 100 μg/ml denatured calf thymus DNA, 20 μg/ml homopoly(A), 40 mM sodium phosphate pH 6.8 and 0.5% BSA) in a heat-sealable bag for 6 hours at 42° C. with occasional mixing. The filter piece was then hybridized with nick-translated pIn 2-1. This was performed by discarding the prehybridization solution from the bag and replacing it with 2.5 ml of hybridization buffer (50% deionized formamide, 5× SSC, 100 μg/ml denatured calf thymus DNA, 20 μg/ml homopoly(A) and 40 mM sodium phosphate, pH 6.8) containing 1.25×10^7 cpm of nick translated 2-1 plasmid described above. Nick-translated plasmid was denatured by boiling for 10 minutes followed by quick-cooling on ice. The filter was then hybridized overnight at 42° C. with occasional mixing.

Test [1] relates to petunia P6.1 gene (P6 RNA). In words: Northern / RNAse protection analysis of P6 RNA in roots of chemically treated petunia. The format is in vivo, Petunia (Mitchell).
Description: Petunia (Mitchell) seeds were germinated in soil and allowed to grow for one month under standard greenhouse conditions. Plants were transferred to a hydroponic growth apparatus in a greenhouse using foam plugs to support the plants. These plugs were then placed in holes in a wooden bDard and placed over a stainless steel sink containing 0.5× Hoagland's solution. The solution was aerated using standard aquarium pumps, and was changed weekly. After one month of hydroponic growth, plants were transferred to stainless steel trays containing either fresh 0.5 × Hoagland's or 0.5× Hoagland's containing 0.2 g per liter of N-(aminocarbonyl)-2-chlorobenzenesulfonamide. Root tissue was harvested after six hours of treatment.
Ten μg (2 mg/ml) of total RNA from control and N-(aminocarbonyl)-2-chlorobenzenesulfonamide-treated roots was denatured by adding 10 μl of deionized formamide, 3.5 μl formaldehyde, 4 μl 5× MEN buffer (40 mM MOPS pH 7.0, 10 mM sodium acetate, 1 mM EDTA) and incubating at 65° C. for 15 minutes. […] RNA was stained in the presence of 10 mM sodium phosphate pH 6.8 and 1 μg/ml acridine orange for 30 minutes. The gel was then desrained in 10 mM sodium phosphate for 30 minutes, and the RNA was visualized on a UV transilluminator, photographed, and blotted to nitrocellulose (Millipore HAWP). To do this, Whatman 3MM paper was placed below the gel on a glass plate so that the ends of the paper extended into 20× SSC. A sheet of nitroccllulose which had been prewet with 2× SSC was placed on top of the gel followed by a layer of Whatman 3MM, then a stack of paper towels 10 cm high. A glass plate and weight were then placed on top of the stack. Following an overnight transfer, the filter was rinsed briefly in 2× SSC, air dried, and baked in vacuo for 2 hours at 80° C.
The filters were prehybridized for 5 hours in plastic dishes at 42° C. using the hybridization buffer described earlier. Plasmid p6.1 was nick-translated by combining 1 μg of DNA with 5 μl 10× buffer (0.5M Tris-HCl pH 8.0, 0.1M MgSO4, 10 mM DTT and 0.5 mg/ml BSA), 5 μl 0.3 uM d(AGT)TP, 5 μl ^32 P-dCTP (Amersham, 10 mCi/ml, 400 Ci/mmole), 1 μl DNA polymerase 1 (5 U/μl, Boehringer-Mannheim), and 1 μl of 0.1 μg/ml DNAse 1 in a total volume of 50 μl. […] The reaction was then incubated for 5 minutes at 70° C., and labelled DNA was separated from unincorporated nucleotides by Sephadex® G-50 column chromatography. The prehybridization solution was removed from the bag and replaced with hybridization solution containing nick-translated plasmid P6.1 DNA at a concentration of 1×10^6 cpm/ml. […] Filters were washed twice with 2× SSC, 0.1% SDS at 42° C. followed by two washes in 0.1× SSC, 0.1%SDS at 60° C.
RNA probes complementary to the coding strands in both P644 and P645 were synthesized in the following reaction: 50 uCi ^32 P-UTP, 2 μl 5× transcription buffer (200 mM Tris-HCl pH 7.5, 30 mM MgCl2, 10 mM spermidine), 0.5 μl 0.2M DTT, and 0.5 μl of either T3 polymerase (plasmid P645) or T7 polymerase (plasmid P644). Incubation was carried out at 40° C. for 1 hour. The DNA template was hydrolyzed for 15 minutes at 37° C. by addition of 30 μl H2 O, 1 μl RNAsin, 2,5 μl vanadyl ribonucleoside complex, 6 μl 5× transcription buffer and 1 μl DNAse 1 (1 mg/ml) to the transcription reaction. The reaction was extracted with an equal volume of phenol:chloroform (1:1 v/v). The RNA was precipitated once with ethanol in the presence of ammonium acetate and once with ethanol in the presence of sodium acetate. The pellets were dissolved in 25 μl of TE. Ten μg of RNA from untreated and N-(aminocarbonyl)-2-chlorobenzenesulfonamide-treated plants were mixed with 1×10^6 cpm of each of the two probes in 30 ul of hybridization buffer (40 mM PIPES pH 6.7, 0.4M NaCl, 1 mM EDTA). […] Single stranded RNA was selectively digested by adding 300 μl RNAse A and RNAse T1 to 40 μg/ml and 2 μg/ml respectively in 10 mM Tris-HCl pH 7.5, 5 mM EDTA, and 300 mM NaCl.
Test [2] deals with 2-2 promoter/HRA recombinant gene. Description: RNAse protection analysis of HRA (ALS) mRNA in leaves of tobacco transformed with 2-2 promoter/HRA gene. The format is in vivo. Particulars: excised leaves, 200 mg/l in 0.5× Hoagland's, 16-24 hours. The procedure: The expression of stable cytoplasmic mRNA transcribed from the wild type and transforming ALS genes in transformed plants were measured by RNAse protection analysis. In this manner, expression of the pDuPS22 construction was distinguished from the wild type ALS genes by virtue of the fact that the pDUPS22 transcript has a 2-2 untranslated leader that is divergent from the untranslated leader of the native ALS genes. […]
RNAse protection assays were carried out using the protocol of Zinn et al. (Zinn et al. Cell (1983) 34, 865-879). […] The sizes of the labelled RNA fragments remaining after digestion with RNAse T1 and RNAse A were determined by electrophoresis using 6% denaturing polyacrylamide gels.

Test [3] concerns tobacco leaf pieces (callus formation). In words: Callus formation of leaf pieces from kanamycin-resistant tobacco shoots on selective medium. The format is cell-based. Particulars: sixteen kanamycin-resistant shoots, three weeks; 10 ppb chlorsulfuron and/or 100 ppm D5293. An excerpt: Callus formation was scored as plus or minus after three weeks of growth.
Setting [4] is: hydroponic 200 mg/l, sampled at 2, 4, 6 and 22 hours, roots.

With `NC(=O)NS(=O)(=O)c1ccccc1Cl`, the “hybridization of pIn 2-1 to root RNA (RNA slot blot)” value in the test on 2-1 gene (In 2-1 mRNA) (hydroponic 0.2 g/liter, six hours, corn roots) is “strongly hybridized”. The In2-1 induction level entry in the test with 2-1 gene (In 2-1 mRNA) (hydroponic application, 100 ppm) is recorded as “+++++”. In the test on 2-1 gene (In 2-1 mRNA) (hydroponic treatment, corn roots), the “hybridization of pIn 2-1 to root poly(A)+ RNA (Northern blot)” value is reported as “single intense hybridization signal”. Further, the “hybridization of P6.1 probe to root RNA (Northern blot)” value in test [1] (hydroponic 0.2 g per liter, six hours, petunia roots) is on record as “hybridized to an 800 bp message”. For the same compound, in test [1] (setting [4]), the “time at which P6 RNA reached maximum levels” value was no more than 6 h and the “time at which P6 RNA was detectable” value is no more than 2 h. In addition, the “RNAse protection of P6.1 probes by root RNA” value in test [1] (petunia roots, treated vs untreated plants) is reported as “Protected fragments of 110 bp were observed in induced but not control RNA”. Also, the “induction of HRA mRNA (RNAse protection)” value in test [2] is listed as “induction of high levels of stable cytoplasmic HRA mRNA”. Further, the “Callus formation (shoots whose leaf pieces formed callus / shoots tested)” value in test [3] is 0/16.

Values taken from patent publication US5608143A, “External regulation of gene expression” (E. I. Du Pont de Nemours and Company, priority 1994, dated 1997).
